{
  "source": "patent US20100092456A1",
  "about": "“METHODS OF TREATMENT” (priority 2006, published 2010)",
  "test_system": "nuclear PtdIns4P and PtdIns5P in differentiated MEL cells",
  "experiment": "Mass assay of nuclear PtdIns4P and PtdIns5P in differentiated MEL cells",
  "format": "cell-based, Murine",
  "settings": "NAC 5 mM or BSO 100 μM for 4 hours, H2O2 500 μM for 15 minutes, vs control-treated cells",
  "protocol": "B) Differentiated MEL cells were treated with NAC (5 mM) or BSO (100 μM), each for 4 hours, or H2O2 (500 μM) for 15 minutes prior to the isolation of intact nuclei. A mass assay was used to determine the levels of PtdIns4P and PtdIns5P. The results are expressed as % of control-treated differentiated MEL cells and are calculated from 3 independent experiments.\nMEL, HEK 293 and HT1080 cells were maintained in routine culture using 10% FCS in DMEM. When required, differentiated MEL cells were prepared by the addition of 1.5% DMSO to the culture medium for a period of 4 days. MEL cells were transfected using Effectene (Qiagen), HEK 293 cells with calcium phosphate and HT1080 with LT1 (Mirus corporation). The following plasmids were used: pEGFP, pCDNA3 (both from Clontech), pCDNA3-Flag-MKK6+ and pCDNA3-Flag-MKK6-(from Dr. M. Schmidt, The Netherlands Cancer Institute), pSuper (from Dr. R. Agami, The Netherlands Cancer Institute), pCDNA3-EGFP-IpgD/IpgE, pCDNA3-EGFP-PIP kinase typeIIβ, and RNAi for type II β PIP kinase (termed pSuper-IIβRNAi). The targeting sequence for the latter was […]. Irradiation of the cells with 254 nm UV-C light (0-200 J/m) or gamma rays (0-40 Gy, from a Cesium 137 source) was performed using 6-well or 10 cm plastic petri dishes with a depth of medium covering the cells not exceeding 3-4 mm. Thereafter, the cells were returned to normal culture conditions for 30 minutes before subcellular fractionation was started. To determine long terms effects of UV and gamma irradiation the cells were returned to normal culture conditions for up to 48 hours.\nMEL cells were washed, twice in ice cold PBS before their fractionation using a detergent-free hypotonic buffer. This method yields a mixed cytosol and membrane fraction and intact nuclei after separation using a sucrose cushion. MEL cell nuclei were fractionated into nucleoplasm and the CEF using modifications of a previously published method. Briefly, intact MEL cell nuclei were resuspended in ice cold hypotonic buffer (3 mM EDTA, 0.2 mM EGTA and 1 mM DTT pH 7.85, with protease inhibitors) followed by forced passage (12 times) through a 25 gauge needle. After centrifugation (1700 g) the supernatant (the nucleoplasm) was saved. The pellet (CEF) was washed twice before resuspending by sonication in 10 mM TrisHCl, 10% sucrose, 10 mM MgCl2 pH 7.4, with protease inhibitors. The protein content of all fractions was determined using the Bradford reagent (BioRad). PtdIns4P and PtdIns5P were measured using in vitro mass assays employing recombinant type I and type II PIP kinases, respectively. The product PtdIns(4,5)P2 was separated by TLC. The amount of radioactivity found in PtdIns(4,5)P2 was proportional to the amount of PtdInsP isomer in the neomycin affinity-purified lipid extract.\nHowever, no studies have determined a role for nuclear phosphoinositides or defined downstream protein targets mediating phosphoinositide-stress activated pathways. To study changes in nuclear phosphoinositides in response to cellular stress, we used Murine erythroleukaemia (MEL) cells as a model system because preparations of nuclei from these cells have been proven to be of high purity. To visualise changes in phosphoinositides, various independent methods were used. The mass level of both PtdIns4P and PtdIns5P were measured using an assay that relies on the differential in vitro specificities of type I and type II PIP kinases. […] Gamma irradiation (10 Gy) led to a small (approximately 20%) decrease in the PtdIns4P level but no detectable change in the level of PtdIns5P in whole nuclei (FIG. 1a). To determine if nuclear PtdInsPs were regulated by oxidative stress we treated differentiated MEL cells with H2O2, BSO (L-buthionine[S,R]-sulphoximine, a glutamyl-cysteine synthetase inhibitor, which increases intracellular reactive oxygen species (ROS)) or NAC. (N-acetyl-cysteine, which increases cellular glutathione levels and cell' capability to deal with ROS). […]",
  "data": [
    {"compound": "OO", "note": "[H2O2]", "values": [
      {"measurement": "level of nuclear PtdIns4P", "value": "increased"},
      {"measurement": "level of nuclear PtdIns5P", "value": "increased"}
    ]}
  ]
}
